What is called IC50 is the concentration that gives 50% inhibition. Read a low IC50 as higher potency.

SMILES strings stand for the structures.

Our source for the IC50 values is US12630530B2, “FGFR inhibitor compound and use thereof” (HENAN MEDINNO PHARMACEUTICAL TECHNOLOGY CO., LTD., priority 2020, dated 2026).

What all share (format): biochemical
Common to all, as to details: Table 3; same method as Assay I, different experimental operator

For one assay, the target named is T1, FGFR1 V561M (Homo sapiens, UniProt P11362, V561M).
T1 construct: purchased Signalchem F04-13G
The assay can be described thus: Assay III: inhibitory activity against FGFR mutants (method of Assay I, different operator). The procedure:
(§1) 1×Kinase reaction buffer was formulated with 1×volume of 5× kinase reaction buffer and 4×volume of water; 5 mM MgCl2; and 1 mM DTT.
(§2) 2.3 Screening of Compounds: • 1. Diluting a compound 4-fold in a dilution plate with DMSO, with a starting compound concentration of 2 mM (4 mM for Nentedanib). • 2. Diluting the compound 40-fold into 1× kinase reaction buffer and shaking it on a shaker for 20 minutes. • 3. […] Adding 1 μl of the compound diluted in buffer to each well, sealing the plate with a sealing membrane and centrifuging the plate at 1000 g for 30 seconds and leaving it at room temperature for 10 minutes. • 6. Formulating 2.5×TK-substrate-biotin and ATP mixture with 1× enzyme reaction buffer and adding 2 μl of K-substrate-biotin/ATP mixture to the reaction plate. • 7. Sealing the plate with a sealing membrane and centrifuging the plate at 1000 g for 30 seconds and allowing it to react at room temperature for 50 minutes. • 8. Formulating 4×Sa-XL 665 (250 nM) with HTRF assay buffer. • 9. Adding 5 μl Sa-XL 665 and 5 μl TK-Antibody-Cryptate to each well, centrifuging it at 1000 g for 30 seconds, and allowing it to react for 1 hour at room temperature. • 10. Reading fluorescence signals at 615 nm (Cryptate) and 665 nm (XL665) with Biotek. 3. Data Analysis
(§3) 3.1 Calculation of the ratio for each well: the ratio was calculated as 665/615 nm.
(§4) 3.3 Calculation of IC50 and plotting of inhibition curves for the compounds.
(§5) The IC50 (half inhibition concentration) of a compound was obtained using the following non-linear fitting equation, wherein data analysis was performed using Graphpad 6.0 software.
(§6) Data were exported from Envision and analyzed manually. The ratios were converted to inhibition rates and IC50 was calculated by Prism GraphPad 6.0 from the inhibition rates. IC50 was calculated again by the ratios to verify accuracy of the results.
(§7) Assay III: Determination of Inhibitory Activity Against FGFR Mutants

For a further assay, the target named is T2, FGFR2 V564F (Homo sapiens, UniProt P21802, V564F).
T2 construct: purchased Signalchem F05-12FG
The description is as above. As to the method:
as §1, §2, §3, §4, §5, §6, §7

In the next assay the target is T3, FGFR3 V555M (Homo sapiens, UniProt P22607, V555M).
T3 construct: purchased Signalchem F06-12GG
The description is as above. As to the method: as §1, §2, §3, §4, §5, §6, §7

The target of the next assay is T4, VEGFR2 (Homo sapiens, UniProt P35968).
T4 construct: purchased Carna 08-191
The assay is described as follows: Assay III: kinase inhibition (method of Assay I, different operator), VEGFR2. The procedure: as §1
2.3 Screening of Compounds: • 1. Diluting a compound 4-fold in a dilution plate with DMSO, with a starting compound concentration of 2 mM (4 mM for Nentedanib). • 2. Diluting the compound 40-fold into 1× kinase reaction buffer and shaking it on a shaker for 20 minutes. • 3. Formulating 2×FGFR1 V561M/FGFR2 V564F/FGFR3 K650E/VEGFR2 with 1× of enzyme reaction buffer. • 4. Adding 2 μl FGFR1 V561M/FGFR2 V564F/FGFR3 K650E/VEGFR2 kinase (formulated in step 3) to each well of the reaction plate. • 5. Adding 1 μl of the compound diluted in buffer to each well, sealing the plate with a sealing membrane and centrifuging the plate at 1000 g for 30 seconds and leaving it at room temperature for 10 minutes. • 6. Formulating 2.5×TK-substrate-biotin and ATP mixture with 1× enzyme reaction buffer and adding 2 μl of K-substrate-biotin/ATP mixture to the reaction plate. • 7. Sealing the plate with a sealing membrane and centrifuging the plate at 1000 g for 30 seconds and allowing it to react at room temperature for 50 minutes. • 8. Formulating 4×Sa-XL 665 (250 nM) with HTRF assay buffer. • 9. Adding 5 μl Sa-XL 665 and 5 μl TK-Antibody-Cryptate to each well, centrifuging it at 1000 g for 30 seconds, and allowing it to react for 1 hour at room temperature. • 10. Reading fluorescence signals at 615 nm (Cryptate) and 665 nm (XL665) with Biotek. 3. Data Analysis
as §3, §4
The IC50 (half inhibition concentration) of a compound was obtained using the following non-linear fitting equation, wherein data analysis was performed using Graphpad 6.0 software. Y=Bottom+(Top−Bottom)/(1+10^((Log IC50−X)*Hill Slope)) • X: log value of compound concentration; and Y: inhibition rate (% inh) 3.4 Validation of Results
as §6, §7

T4 sequence (P35968 20-1356): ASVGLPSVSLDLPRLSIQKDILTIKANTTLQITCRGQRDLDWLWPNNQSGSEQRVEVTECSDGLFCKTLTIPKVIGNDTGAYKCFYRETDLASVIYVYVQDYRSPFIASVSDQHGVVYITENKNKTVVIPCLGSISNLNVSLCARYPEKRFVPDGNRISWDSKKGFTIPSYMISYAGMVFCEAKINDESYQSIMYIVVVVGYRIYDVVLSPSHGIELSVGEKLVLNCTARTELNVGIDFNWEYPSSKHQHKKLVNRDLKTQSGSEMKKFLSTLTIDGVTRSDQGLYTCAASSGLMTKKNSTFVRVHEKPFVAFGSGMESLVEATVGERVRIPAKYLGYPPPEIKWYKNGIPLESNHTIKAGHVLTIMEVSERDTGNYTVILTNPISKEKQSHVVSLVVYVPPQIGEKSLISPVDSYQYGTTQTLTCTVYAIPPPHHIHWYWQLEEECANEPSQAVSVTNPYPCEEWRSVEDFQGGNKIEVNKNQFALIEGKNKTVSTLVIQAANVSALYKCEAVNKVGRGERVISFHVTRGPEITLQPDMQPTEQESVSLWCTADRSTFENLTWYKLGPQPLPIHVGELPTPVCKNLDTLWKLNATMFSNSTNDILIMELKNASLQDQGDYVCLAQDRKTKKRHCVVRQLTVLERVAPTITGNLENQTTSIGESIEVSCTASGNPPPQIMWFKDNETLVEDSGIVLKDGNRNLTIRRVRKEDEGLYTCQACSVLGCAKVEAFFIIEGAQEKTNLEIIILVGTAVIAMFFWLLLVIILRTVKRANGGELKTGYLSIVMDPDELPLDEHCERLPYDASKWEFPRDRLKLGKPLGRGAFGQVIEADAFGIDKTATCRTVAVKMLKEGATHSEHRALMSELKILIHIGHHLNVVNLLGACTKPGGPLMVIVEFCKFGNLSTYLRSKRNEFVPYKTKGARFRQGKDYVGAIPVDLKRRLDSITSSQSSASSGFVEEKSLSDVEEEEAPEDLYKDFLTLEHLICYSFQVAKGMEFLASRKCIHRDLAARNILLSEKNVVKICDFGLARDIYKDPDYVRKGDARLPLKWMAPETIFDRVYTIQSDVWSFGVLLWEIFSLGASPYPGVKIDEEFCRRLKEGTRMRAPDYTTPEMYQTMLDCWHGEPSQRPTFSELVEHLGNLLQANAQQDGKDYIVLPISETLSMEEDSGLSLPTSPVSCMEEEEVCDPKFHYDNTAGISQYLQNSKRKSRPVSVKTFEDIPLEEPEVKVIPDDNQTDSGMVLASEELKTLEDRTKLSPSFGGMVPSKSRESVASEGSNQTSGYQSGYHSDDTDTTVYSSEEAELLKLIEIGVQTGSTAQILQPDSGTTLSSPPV
T2 sequence (P21802 22-821 V564F): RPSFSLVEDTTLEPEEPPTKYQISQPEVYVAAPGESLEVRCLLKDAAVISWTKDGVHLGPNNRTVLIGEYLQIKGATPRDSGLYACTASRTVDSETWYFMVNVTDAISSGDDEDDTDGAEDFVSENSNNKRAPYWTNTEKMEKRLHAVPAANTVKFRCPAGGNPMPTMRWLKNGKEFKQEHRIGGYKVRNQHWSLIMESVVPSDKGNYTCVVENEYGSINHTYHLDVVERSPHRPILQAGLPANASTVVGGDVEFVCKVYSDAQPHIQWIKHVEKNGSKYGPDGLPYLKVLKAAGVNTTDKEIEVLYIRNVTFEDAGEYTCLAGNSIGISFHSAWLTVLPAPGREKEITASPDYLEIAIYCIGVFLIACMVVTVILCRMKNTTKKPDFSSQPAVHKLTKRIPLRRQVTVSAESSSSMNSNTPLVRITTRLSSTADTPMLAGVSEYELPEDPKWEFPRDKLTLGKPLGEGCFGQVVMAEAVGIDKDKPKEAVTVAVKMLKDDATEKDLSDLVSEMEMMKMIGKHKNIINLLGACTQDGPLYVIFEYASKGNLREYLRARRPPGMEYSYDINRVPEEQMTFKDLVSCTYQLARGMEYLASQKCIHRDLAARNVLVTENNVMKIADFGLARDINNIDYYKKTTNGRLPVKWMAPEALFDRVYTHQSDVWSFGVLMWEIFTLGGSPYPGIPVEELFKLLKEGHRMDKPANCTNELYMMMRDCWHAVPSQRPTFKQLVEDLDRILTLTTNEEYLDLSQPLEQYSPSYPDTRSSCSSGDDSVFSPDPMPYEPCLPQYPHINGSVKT
T1 sequence (P11362 22-822 V561M): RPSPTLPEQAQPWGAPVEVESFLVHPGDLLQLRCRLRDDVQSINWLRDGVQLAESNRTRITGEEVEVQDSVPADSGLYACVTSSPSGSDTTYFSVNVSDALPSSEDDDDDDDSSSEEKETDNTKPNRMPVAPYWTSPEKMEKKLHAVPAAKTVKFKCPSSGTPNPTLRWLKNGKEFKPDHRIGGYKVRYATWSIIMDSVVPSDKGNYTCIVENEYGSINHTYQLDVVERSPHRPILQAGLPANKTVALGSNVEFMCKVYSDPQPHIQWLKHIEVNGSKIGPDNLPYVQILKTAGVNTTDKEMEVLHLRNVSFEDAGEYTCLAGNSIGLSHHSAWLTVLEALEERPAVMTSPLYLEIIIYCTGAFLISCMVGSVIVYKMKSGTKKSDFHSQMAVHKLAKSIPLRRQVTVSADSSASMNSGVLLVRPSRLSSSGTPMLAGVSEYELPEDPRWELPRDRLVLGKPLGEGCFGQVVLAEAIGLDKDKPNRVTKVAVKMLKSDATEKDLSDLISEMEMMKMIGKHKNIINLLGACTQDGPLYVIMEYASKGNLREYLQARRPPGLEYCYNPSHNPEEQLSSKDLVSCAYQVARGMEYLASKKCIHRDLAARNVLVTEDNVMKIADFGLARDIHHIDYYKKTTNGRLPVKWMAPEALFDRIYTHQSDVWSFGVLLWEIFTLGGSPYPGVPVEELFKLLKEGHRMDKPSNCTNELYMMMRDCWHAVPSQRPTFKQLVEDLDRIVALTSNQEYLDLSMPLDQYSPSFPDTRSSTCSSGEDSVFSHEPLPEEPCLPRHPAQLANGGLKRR
T3 sequence (P22607 23-806 V555M): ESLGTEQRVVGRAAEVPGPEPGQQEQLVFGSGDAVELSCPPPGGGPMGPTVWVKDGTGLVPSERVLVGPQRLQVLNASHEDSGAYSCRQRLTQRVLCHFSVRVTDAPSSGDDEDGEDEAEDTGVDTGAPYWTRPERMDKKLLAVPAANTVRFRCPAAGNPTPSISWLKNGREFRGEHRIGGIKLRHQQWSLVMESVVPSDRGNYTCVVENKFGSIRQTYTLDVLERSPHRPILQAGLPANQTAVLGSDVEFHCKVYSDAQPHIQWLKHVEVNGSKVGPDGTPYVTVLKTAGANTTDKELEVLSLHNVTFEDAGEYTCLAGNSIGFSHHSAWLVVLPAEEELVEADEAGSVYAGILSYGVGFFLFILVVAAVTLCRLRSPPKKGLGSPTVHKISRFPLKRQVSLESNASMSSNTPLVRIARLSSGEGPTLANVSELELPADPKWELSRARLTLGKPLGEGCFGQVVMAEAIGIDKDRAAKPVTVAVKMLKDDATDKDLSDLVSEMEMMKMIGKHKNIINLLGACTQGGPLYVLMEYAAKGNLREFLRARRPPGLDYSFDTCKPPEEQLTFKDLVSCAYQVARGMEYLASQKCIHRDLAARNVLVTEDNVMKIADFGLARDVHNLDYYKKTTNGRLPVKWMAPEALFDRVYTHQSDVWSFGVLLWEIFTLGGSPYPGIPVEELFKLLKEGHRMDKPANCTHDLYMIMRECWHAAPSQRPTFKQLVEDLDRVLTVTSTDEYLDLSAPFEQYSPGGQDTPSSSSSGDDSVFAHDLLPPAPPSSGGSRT

Turning to `C[C@@H](Oc1ccc2[nH]nc(C(=O)Nc3cnn(CC4CCCCN4C)c3)c2c1)c1c(Cl)cncc1Cl` (stereo partly drawn) [Compound 45, 5-((R)-1-(3,5-dichloropyridin-4-yl)ethoxy)-N-(1-((1-methylpiperidin-2-yl)methyl)-1H-pyrazol-4-yl)-1H-indazole-3-carboxamide], the IC50 against FGFR1 V561M worked out at 0.34 nM; against FGFR2 V564F, 0.1 nM; against FGFR3 V555M, 0.14 nM; against VEGFR2, 62 nM.
Turning to `C[C@@H](Oc1ccc2[nH]nc(C(=O)Nc3cnn(C4CCC(O)CC4)c3)c2c1)c1c(Cl)cncc1Cl` (stereo partly drawn) [Compound 48, (R)-5-(1-(3,5-dichloropyridin-4-yl)ethoxy)-N-(1-(4-hydroxycyclohexyl)-1H-pyrazol-4-yl)-1H-indazole-3-carboxamide], the IC50 at FGFR1 V561M was found to be 1 nM; on FGFR2 V564F, 0.31 nM; against FGFR3 V555M, 0.82 nM; against VEGFR2 it was 115 nM.
Take `C[C@@H](Oc1ccc2[nH]nc(C(=O)Nc3cnn(Cc4cccnc4)c3)c2c1)c1c(Cl)cncc1Cl` [Compound 49, (R)-5-(1-(3,5-dichloropyridin-4-yl)ethoxy)-N-(1-(pyridin-3-ylmethyl)-1H-pyrazol-4-yl)-1H-indazole-3-carboxamide]: the IC50 against FGFR1 V561M amounted to 0.51 nM; at FGFR2 V564F, 0.55 nM; on FGFR3 V555M, 1.4 nM; on VEGFR2 it was 110 nM.
Taken in the same sequence, the figures for `CC(Oc1ccc2[nH]nc(C(=O)Nc3cnn(CC(F)(F)F)c3)c2c1)c1c(Cl)cncc1Cl` (centres unmarked) [Compound 28, 5-(1-(3,5-dichloropyridin-4-yl)ethoxy)-N-(1-(2,2,2-trifluoroethyl)-1H-pyrazol-4-yl)-1H-indazole-3-carboxamide] were 11 nM, 2.6 nM, 3 nM and 68 nM.
For `CC(Oc1ccc2[nH]nc(C(=O)Nc3cnn(CC(=O)N4CCCC4)c3)c2c1)c1c(Cl)cncc1Cl` (centres unmarked) [Compound 23, 5-(1-(3,5-dichloropyridin-4-yl)ethoxy)-N-(1-(2-oxo-2-(pyrrolidin-1-yl)ethyl)-1H-pyrazol-4-yl)-1H-indazole-3-carboxamide], in that order: 2.2 nM, 0.47 nM, 0.92 nM and 114 nM.
On to `CC(Oc1ccc2[nH]nc(C(=O)Nc3cnn(CCCO)c3)c2c1)c1c(Cl)cncc1Cl` (centres unmarked) [Compound 29, 5-(1-(3,5-dichloropyridin-4-yl)ethoxy)-N-(1-(3-hydroxypropyl)-1H-pyrazol-4-yl)-1H-indazole-3-carboxamide], for which the IC50 on FGFR1 V561M was found to be 2.3 nM; on FGFR2 V564F it was 0.93 nM; against FGFR3 V555M, 0.25 nM; against VEGFR2 it was 144 nM.
For the compound `C[C@@H](Oc1ccc2[nH]nc(C(=O)Nc3cnn(Cc4ccncc4)c3)c2c1)c1c(Cl)cncc1Cl` [Compound 50, (R)-5-(1-(3,5-dichloropyridin-4-yl)ethoxy)-N-(1-(pyridin-4-ylmethyl)-1H-pyrazol-4-yl)-1H-indazole-3-carboxamide], the IC50 was determined as 1.7 nM at FGFR1 V561M, 0.37 nM against FGFR2 V564F, 0.64 nM against FGFR3 V555M and 152 nM at VEGFR2.
Turning to `C[C@@H](Oc1ccc2[nH]nc(C(=O)Nc3cnn(C4CCN(C)C4)c3)c2c1)c1c(Cl)cncc1Cl` (stereo partly drawn) [Compound 43, 5-((R)-1-(3,5-dichloropyridin-4-yl)ethoxy)-N-(1-(1-methylpyrrolidin-3-yl)-1H-pyrazol-4-yl)-1H-indazole-3-carboxamide], the IC50 was 0.38 nM against FGFR1 V561M, 0.15 nM at FGFR2 V564F, 0.14 nM at FGFR3 V555M and 62 nM against VEGFR2.
For the compound `CCC(Oc1ccc2[nH]nc(C(=O)Nc3cnn(C)c3)c2c1)c1c(Cl)cncc1Cl` (centres unmarked) [Compound 46, 5-(1-(3,5-dichloropyridin-4-yl)propoxy)-N-(1-methyl-1H-pyrazol-4-yl)-1H-indazole-3-carboxamide], the IC50 against FGFR1 V561M is 3.4 nM; against FGFR2 V564F it was 1 nM; on FGFR3 V555M it was 2.1 nM; on VEGFR2 it was 184 nM.
For the compound `C[C@@H](Oc1ccc2[nH]nc(C(=O)Nc3cnn(CC4CCN(C)C4)c3)c2c1)c1c(Cl)cncc1Cl` (stereo partly drawn) [Compound 41, 5-((R)-1-(3,5-dichloropyridin-4-yl)ethoxy)-N-(1-((1-methylpyrrolidin-3-yl)methyl)-1H-pyrazol-4-yl)-1H-indazole-3-carboxamide], the IC50 on FGFR1 V561M worked out at 0.37 nM; against FGFR2 V564F it was 0.18 nM; against FGFR3 V555M, 0.22 nM; against VEGFR2 it was 84 nM.
Take `C[C@@H](Oc1ccc2[nH]nc(C(=O)Nc3cnn(C4CCOCC4)c3)c2c1)c1c(Cl)cncc1Cl` [Compound 47, (R)-5-(1-(3,5-dichloropyridin-4-yl)ethoxy)-N-(1-(tetrahydro-2H-pyran-4-yl)-1H-pyrazol-4-yl)-1H-indazole-3-carboxamide]: the IC50 was determined as 2.3 nM on FGFR1 V561M, 1.2 nM against FGFR2 V564F, 2.1 nM against FGFR3 V555M and 194 nM against VEGFR2.
Turning to `CC(Oc1ccc2[nH]nc(C(=O)Nc3cnn(C(C)C)c3)c2c1)c1c(Cl)cncc1Cl` (centres unmarked) [Compound 26, 5-(1-(3,5-dichloropyridin-4-yl)ethoxy)-N-(1-isopropyl-1H-pyrazol-4-yl)-1H-indazole-3-carboxainide], the IC50 amounted to 11.4 nM against FGFR1 V561M, 1.8 nM on FGFR2 V564F, 2.9 nM on FGFR3 V555M and 255 nM on VEGFR2.
Take `CC(Oc1ccc2[nH]nc(C(=O)Nc3cnn(C4CCC4)c3)c2c1)c1c(Cl)cncc1Cl` (centres unmarked) [Compound 27, N-(1-cyclobutyl-1H-pyrazol-4-yl)-5-(1-(3,5-dichloropyridin-4-yl)ethoxy)-1H-indazole-3-carboxamide]: the IC50 is 20 nM against FGFR1 V561M, 2.1 nM on FGFR2 V564F, 7.3 nM at FGFR3 V555M and 581 nM at VEGFR2.
Regarding `C[C@H](O)Cn1cc(NC(=O)c2n[nH]c3ccc(O[C@H](C)c4c(Cl)cncc4Cl)cc23)cn1` [Compound 32, 5-((R)-1-(3,5-dichloropyridin-4-yl)ethoxy)-N-(1-((S)-2-hydroxypropyl)-1H-pyrazol-4-yl)-1H-indazole-3-carboxamide], the IC50 against FGFR1 V561M is 0.3 nM; on FGFR2 V564F, 0.37 nM; against FGFR3 V555M it was 0.26 nM; on VEGFR2, 86 nM.
With `C[C@@H](Oc1ccc2[nH]nc(C(=O)Nc3cnn(CCN4CCOCC4)c3)c2c1)c1c(Cl)cncc1Cl` [Compound 37, (R)-5-(1-(3,5-dichloropyridin-4-yl)ethoxy)-N-(1-(2-morpholinoethyl)-1H-pyrazol-4-yl)-1H-indazole-3-carboxamide], the IC50 came to 1.6 nM on FGFR1 V561M, 0.44 nM on FGFR2 V564F, 0.16 nM at FGFR3 V555M and 79 nM on VEGFR2.
`CCN1CCN(c2ccc(Nc3cc(N(C)C(=O)Nc4c(Cl)c(OC)cc(OC)c4Cl)ncn3)cc2)CC1` [Infigratinib, reference compound]: at VEGFR2, the IC50 is 73 nM.
With `C[C@@H](Oc1ccc2[nH]nc(C(=O)Nc3cnn(C4CC(O)C4)c3)c2c1)c1c(Cl)cncc1Cl` (stereo partly drawn) [Compound 35, (R)-5-(1-(3,5-dichloropyridin-4-yl)ethoxy)-N-(1-(3-hydroxycyclobutyl)-1H-pyrazol-4-yl)-1H-indazole-3-carboxamide], the IC50 at FGFR1 V561M stood at 0.29 nM; on FGFR2 V564F it was 0.16 nM; against FGFR3 V555M, 0.27 nM; at VEGFR2 it was 89 nM.
